Tested on: Patients diagnosed with Alzheimer's Disease
Test: CIBIC-plus in 5-month slow-titration trial
Format: in vivo, human
Experimental: Subjects in the Placebo group received 21 weeks (5 months) of placebo medication.
The CIBIC-plus score was a second primary variable. An independent, experienced and properly trained clinician provided a global impression of the subject's deterioration or improvement over the course of the trial, based on separate interviews with the subject and caregivers. If helpful, the CIBIC rater audiotaped or videotaped the baseline interview for future reference.
The CIBIC-plus was performed at visit 2, 3, 4, and 5 (baseline, week 4, week 13, and month 5 or upon early discontinuation of trial medication intake). Only a trained CIBIC rater performed the test.
For ordinal categorical variables such as the CIBIC-plus score, the Van Elteren test controlling for investigator was used for the between group comparison. For the nominal data (e.g., events rates), the Cochran-Mantel-Haenszel test for general association controlling for investigator was used. A linear contrast on the proportion of patients that stay the same or improve was used to test for increasing response with increasing dose.

Compound: COc1ccc2c3c1O[C@H]1C[C@@H](O)C=C[C@@]31CCN(C)C2 [GAL, galantamine]
- CIBIC-plus at Month 5, Improved/no change: % (LOCF, 8 mg/day): 53%
- CIBIC-plus at Month 5, Improved/no change: n (LOCF, 8 mg/day): 68
- CIBIC-plus at Month 5, Improved/no change: % (LOCF, 16 mg/day): 66%
- CIBIC-plus at Month 5, Improved/no change: n (LOCF, 16 mg/day): 169
- CIBIC-plus at Month 5, Improved/no change: % (LOCF, 24 mg/day): 64%
- CIBIC-plus at Month 5, Improved/no change: n (LOCF, 24 mg/day): 162
- CIBIC-plus at Month 5, Improved/no change: % (observed case, 8 mg/day): 51%
- CIBIC-plus at Month 5, Improved/no change: n (observed case, 8 mg/day): 54
- CIBIC-plus at Month 5, Improved/no change: % (observed case, 16 mg/day): 68%
- CIBIC-plus at Month 5, Improved/no change: n (observed case, 16 mg/day): 143
- CIBIC-plus at Month 5, Improved/no change: % (observed case, 24 mg/day): 64%
- CIBIC-plus at Month 5, Improved/no change: n (observed case, 24 mg/day): 136
